Results on one compound are retold here after patent publication US9662461B2, “Dry powder drug delivery system and methods” (MannKind Corporation, priority 2008, dated 2017).

A short description of series [1]: VMGD and container emptying by laser diffraction, DPI 2 vs predicate inhaler (Example 6). Format: physicochemical. The settings on record: 56% trans, SSA 55, 4 kPa. An excerpt:
Laser diffraction of dry powder formulations emitted from dry powder inhalers is a common methodology employed to characterize the level of de-agglomeration subjected to a powder. The methodology indicates a measure of geometric size rather than aerodynamic size as occurring in industry standard impaction methodologies. Typically, the geometric size of the emitted powder includes a volumetric distribution characterized by the median particle size, VMGD. Importantly, geometric sizes of the emitted particles are discerned with heightened resolution as compared to the aerodynamic sizes provided by impaction methods. Smaller sizes are preferred and result in greater likelihood of individual particles being delivered to the pulmonary tract. Thus, differences in inhaler de-agglomeration and ultimate performance can be easier to resolve with diffraction. In these experiments, an inhaler as specified in Example 3 and a predicate inhaler are tested with laser diffraction at pressures analogous to actual patient inspiratory capacities to determine the effectiveness of the inhalation system to de-agglomerate powder formulations. […] Reported in Table 5 are a VMGD and an efficiency of the container emptying during the testing.

Series [2] can be described thus: In vitro powder performance DPI 2 vs MEDTONE delivery system (Example 7). The settings on record: 4 kPa. Format: physicochemical.
Description: In vitro powder performance for these systems was compared for various parameter of inhaler performance. For DPI 2 a single discharge per cartridge was used as compared to two discharges per cartridge in the MEDTONE® system.
Particle sizing by laser diffraction and quantification of emitted mass as described above were used in these experiments. A laser diffraction instrument (Sympatec HELOS) was adapted with a novel pressurized inhaler chamber to facilitate analysis of powder plumes. MTDS cartridges were discharged twice per determination versus once with DPI 2.
Series [3] can be described thus: Pharmacokinetics of FDKP inhaled as FDKP inhalation powder (Example 8). The series is classed as in vivo, healthy volunteers. The settings on record: for AVG mean AUC fdkp per emitted fdkp mass: n=10.
Protocol: The MEDTONE® inhaler system was used for comparison.
To generate a “hard” inhalation, the subject provided a nominal inhalation time of about 6.5 seconds and a peak pressure of 7 kPa. Conversely, to generate an “easy” inhalation, the subject provided a nominal inhalation time of about 6.5 seconds and a peak pressure of 5 kPa. Coupled with the inhalation monitoring apparatus, gravimetric assessment of the powder mass discharged from the cartridge was performed. This enabled a linkage between inhalation maneuver during dosing, cartridge discharge mass and pharmacokinetic profile determinations for each subject.
The study was an open-label, crossover, 2-part study in healthy volunteers.
Part 2 was carried out as a 2-part, 2-way crossover study for evaluating the effect of flow rate (15 versus 30 LPM) and inhalation time (3 versus 6 seconds). For each parameter tested (i.e., flow rate, and inhalation time), ten subjects were crossed over for each parameter with 20 subjects total for all of the parameters. Pharmacokinetics of FDPK was assessed with each treatment from blood samples taken from the subjects.
The mark [4] stands for this setting: DPI 2, 10 mg fill, single discharge, n=15.
The mark [5] stands for this setting: MEDTONE (MTDS), 10 mg fill FDKP, two discharges, n=30.

In the case of `O=C(O)/C=C/C(=O)NCCCCC1NC(=O)C(CCCCNC(=O)/C=C/C(=O)O)NC1=O` (stereo not shown) [FDKP, 3,6-bis(N-fumaryl-4-aminobutyl)-2,5-diketopiperazine], the VMGD in series [1] was found to be 6.800 micron. Further, the “Ave. Geometric SD” value in series [2] (setting [4]) amounted to 3.79 μm; in series [2] (setting [5]), 2.94 μm. For the same compound, the figures for the “Ave. VMGD” value in series [2] (setting [4]) and in series [2] (setting [5]) were 6.84 μm and 21.21 μm, respectively. The “delivery of FDKP into the systemic circulation, DPI 1 better than MEDTONE” value in series [3] (DPI 1 vs MEDTONE inhaler) is “about 30%”. In addition, the “increase in FDKP plasma AUC, DPI 1 over MEDTONE” value in series [3] (FDKP 10 mg) is recorded as ~2 fold. For the same compound, the “AVG mean AUC fdkp per emitted fdkp mass” value in series [3] (Part 1, DPI 1, cartridge 10 mg fdkp) is given as 3495 ng * min/mL * mg fdkp; in series [3] (Part 1, MT (MEDTONE), two inhalations, cartridge 10 mg fdkp) it was 1934 ng * min/mL * mg fdkp; in series [3] (Part 2, DPI 1, 10 mg, long inhalation time) it was 3289 ng * min/mL * mg fdkp; in series [3] (Part 2, DPI 1, 10 mg, short inhalation time), 3310 ng * min/mL * mg fdkp; in series [3] (Part 3, DPI 1, 10 mg, easy inhalation effort) it was 3925 ng * min/mL * mg fdkp; in series [3] (Part 3, DPI 1, 10 mg, hard inhalation effort), 3867 ng * min/mL * mg fdkp.
